Values quoted from earlier work as cited in article PMC2099433, “The binding site for neohesperidin dihydrochalcone at the human sweet taste receptor” (BMC Structural Biology, 2007).

What was measured:
[1] = test system: sweet taste; parameters: method as in PMID 831282, PMID 14403185; settings: cited from earlier work
[2] = test system: sweet taste; parameters: method as in PMID 10480680; settings: humans; cited from earlier work

Row | SMILES | taste [1] | inhibition of the sweet taste of NHDC [2]
1 | COc1ccc(CCC(=O)c2c(O)cc(O)cc2O)cc1O [hesperitin dihydrochalcone] | tastes sweet | –
2 | COc1ccc(OC(C)C(=O)O)cc1 (centres unmarked) [lactisole] | – | did not inhibit the sweet taste of NHDC
